In US20250109444A1, “DNA HYPOMETHYLATION AS A PREDICTIVE MARKER FOR CANCER THERAPY” (Fred Hutchison Cancer Center, priority 2023, published 2025):

What was measured:
Assay type in all cases: cell-based
LNCaP cells [1] = assay: Co-treatment with EZH2 inhibitor and ipatasertib, cell viability; settings: co-treatment with AKT inhibitor ipatasertib
Description: (§1) FIGS. 5A-5C. […] Increased dependency on PRC2-mediated chromatin repression is observed with AKT inhibition, creating a therapeutic vulnerability. Co-treatment with AKTi and PRC2 inhibitors (such as EZH2 or EED inhibitors) results in synergistic effects.

LNCaP cells [2] = assay: Cell viability of solvent vs SAMe treated LNCaP cells in response to AKTi (ipatasertib); settings: prolonged treatment with methyl donor SAMe vs solvent
Description: (§2) FIGS. 4A, 4B. Modulation of global DNA methylation changes the sensitivity to AKT inhibitors. (4A) Cell viability curves for solvent (circle) and SAMe (square) treated LNCaP cells. The difference in cell viability in response to AKTi (ipatasertib) treatment is shown. (4B) Decitabine (DAC) and GSK344862 results in sensitization.

[3] = tested on: DHMC and non-DHMC cell lines; assay: Cell viability of DHMC and non-DHMC cancer cell lines treated with AKT inhibitors; settings: DHMC vs non-DHMC cell lines, wide spectrum of cancer cell lines, in vitro
Description: FIGS. 2A, 2B. […] (2A) Cell viability curves for DHMC (black) and non-DHMC (light gray) cell lines treated with 3 different AKT inhibitors (afuresertib, AZD5363, ipatasertib). (2B) IC50s for DHMCs (black) and non-DHMCs (gray).

[4] = Sensitization to AKT inhibitors by pharmacologically induced DNA hypomethylation (DNMT inhibitors); settings: pharmacologically induced DNA hypomethylation with DNMT inhibitor
Description: as §2

MALME3 cells = assay: Co-treatment with EED inhibitor and ipatasertib
Description: as §1

[5] = tested on: DHMC and non-DHMC cell lines; assay: Cell viability of DHMC and non-DHMC cancer cell lines treated with histone evicting anthracyclines; settings: DHMC vs non-DHMC cell lines, wide spectrum of cancer cell lines

With CC[C@H](C)n1cc(C)c2c(C(=O)NCc3c(C)cc(C)[nH]c3=O)cc(-c3ccc(N4CCNCC4)nc3)cc21 [GSK126] the “Interaction with ipatasertib (cell viability)” value (LNCaP cells [1]) was “synergistic reduction in cell viability”.

In the case of C[S+](CC[C@H](N)C(=O)O)C[C@H]1O[C@@H](n2cnc3c(N)ncnc32)[C@H](O)[C@@H]1O (stereo partly drawn) [SAMe, S-Adenosylmethionine], the “Change of sensitivity to AKTi (cell viability)” value (LNCaP cells [2]) is reported as “decreases sensitivity to AKTi”.

With Cn1ncc(Cl)c1-c1cc(C(=O)N[C@H](CN)Cc2cccc(F)c2)sc1Cl [afuresertib, Afuresertib] the “Sensitivity of DHMC compared to non-DHMC (cell viability curves, IC50s)” value (“Sensitivity of DHMC compared to non-DHMC” for short) [3] was “increased sensitivity”.

With NC1(C(=O)N[C@@H](CCO)c2ccc(Cl)cc2)CCN(c2nc[nH]c3nccc2-3)CC1 [AZD5363, Capivasertib] the “Sensitivity of DHMC compared to non-DHMC” value [3] was “increased sensitivity”.

With CCc1c(C#N)c(SC(C(N)=O)c2ccccc2)nc(N(C)C)c1C#N (stereo not drawn) [GSK-3484862] the “Change of sensitivity to AKT inhibitors (AKTi)” value [4] was “increases sensitivity to AKT inhibitors”.

With CN(C)[C@H]1CN(C2CCc3cccc(F)c32)C[C@@H]1c1ccc(N2CCN(S(C)(=O)=O)CC2)cc1 (stereo partly drawn) [A395] the Interaction with ipatasertib (MALME3 cells) was “Synergistic interaction”.

For CC(C)NC[C@@H](C(=O)N1CCN(c2ncnc3c2[C@H](C)C[C@H]3O)CC1)c1ccc(Cl)cc1 [ipatasertib, Ipatasertib], the “Sensitivity of DHMC compared to non-DHMC” value [3] was “increased sensitivity”.

In the case of dimethyl-doxorubicin, the “Sensitivity of DHMC compared to non-DHMC” value [5] is reported as “increased sensitivity”.

For CC[C@@]1(O)C[C@H](O[C@H]2C[C@H](N(C)C)[C@H](O[C@H]3C[C@H](O)[C@H](O[C@H]4CCC(=O)[C@H](C)O4)[C@H](C)O3)[C@H](C)O2)c2c(cc3c(c2O)C(=O)c2c(O)cccc2C3=O)[C@H]1C(=O)OC [aclarubicin], the “Sensitivity of DHMC compared to non-DHMC” value [5] was “increased sensitivity”.
